Measured values as given in patent US7589173B2, “Methods for diagnosing cancer and decreasing metastasis by cancer cells” (The Scripps Research Institute, priority 2003, dated 2009).

Test system: SIMA135 tyrosine phosphorylation
Conditions: PP2 50 μM, 30 minutes at 37° C, serum free DMEM
Procedure: Cell lysates, serum free conditioned media and immunoprecipitated proteins were separated by electrophoresis through 8% SDS-polyacrylamide gels then transferred to nitrocellulose membranes (Millipore). […] Following extensive washing membranes were incubated for 2 hr at room temperature with goat anti-mouse IgG (0.16 μg/ml, Pierce, Rockford, Il) and immunoreactive bands detected by enhanced chemiluminescence (Pierce).
For analysis of the basal level of tyrosine phosphorylation of SIMA135, subconfluent cultures of HEp3 and HeLa (as negative control) cells were incubated at 37° C. for 30 min with serum free DMEM containing 50 mM NaF and 1 mM Na3VO4 then washed with ice cold PBS. For inhibition of Src kinase family phosphorylation, HEp3 cells were cultured in serum free DMEM without NaF and Na3VO4 for 30 minutes at 37° C. with PP2 (50 μM). Cells were then lysed in ice cold buffer containing 50 mM Tris (pH 7.4), 150 mM NaCl, 1% Triton X-100, 1 mM phenylmethylsulfonyl fluoride, 1 mM benzamidine, 25 μg/ml aprotinin, 25 μg/ml leupeptin, 50 mM NaF and 1 mM Na3VO4. Insoluble material was removed by centrifugation at 14000 rpm for 10 min. […] Cells lysates were collected as described above.

Question: For `CC(C)(C)n1nc(-c2ccc(Cl)cc2)c2c(N)ncnc21` [PP2], which “reduction in the level of SIMA135 tyrosine phosphorylation compared to untreated HEp3 cells” value is on record?
Answer: Its value is roughly 75%.
